Experimental data published in patent publication US11202787B2, “Use of ACTH in assessment and prophylactic treatment of hypokalemia associated with glucocorticoid receptor modulator treatment of Cushing's syndrome patients” (Corcept Therapeutics, Inc., priority 2018, dated 2021).
Like-named read-outs stand apart in the source and are kept apart here.

Assays:
[1] = system: cortisol; test: 24-hour urine cortisol during mifepristone treatment of Cushing's syndrome patients; format: in vivo, human; details: Mean ± SD
Description: (§1) The Cushing's syndrome study reported herein was conducted in accordance with the Declaration of Helsinki and Good Clinical Practice (GCP) according to International Conference on Harmonization (ICH) guidelines.
(§2) Dosing Schedule Dosing was started with 300 mg of mifepristone once per day for 14 days. After 14 days, if no clinical improvement was seen but the drug was well tolerated, the dose of mifepristone was increased to 600 mg once per day. After 4 weeks of dosing at 600 mg once per day, if no clinical improvement was seen but the drug was well tolerated, the dose was increased to 900 mg once per day. Dose escalation was based on weight with the maximum dose no higher than 20 mg/kg/day. […] After 4 weeks of dosing at 900 mg once per day, if no clinical improvement was seen but the drug was well tolerated, the dose was increased to 1200 mg once per day. Study duration was 24 weeks.
(§3) Potassium levels were obtained on every subject at either screening or the pre-drug administration baseline visit, and then also at every scheduled post-baseline visit. Potassium levels post-baseline were therefore obtained as early as day 7 and through day 210 (week 30 was the last visit and was the 6 week follow-up visit). ACTH, and cortisol were measured at six visits (week 2 (day 14), week 6 (day 42), week 10 (day 70), week 16 (day 112), and week 24 (day 168) week 6 follow-up (day 210)).

[2] = system: Cushing's syndrome patients; details: in vivo
Description: The risk of experiencing at least one episode of hypokalemia (potassium level <3.5 mEq/L) after 7 to 14 Days of exposure to KORLYM (mifepristone) was evaluated using stepwise multivariable logistic regression and single-variable logistic regression models. The following independent factors were evaluated for potential association with hypokalemia based on the biology of the disease: total cortisol at Day 1, ACTH at Day 1, and potassium level at Day 1.
The risk of experiencing at least one episode of hypokalemia (potassium level <3.5 mmol/L) after 28 Days of exposure to KORLYM was evaluated using stepwise multivariable logistic regression and single-variable logistic regression models. The following independent factors were evaluated for potential association with hypokalemia based on the biology of the disease: total cortisol at Day 1 and Day 14 (cort_01 and cort_14), ACTH at Day 1 and Day 14 (ACTH_01 and ACTH_14), and potassium levels at Day 1 and Day 14 (K_01 and K_14).
Patients were defined to have severe/recurrent hypokalemia for this analysis if they had at least one value of potassium of 2.5 mmol/L or lower, or if they had recurrent hypokalemia (hypokalemia occurring during multiple visits after Day 14 visit).
as §1, §2
Serum electrolytes, including potassium, were measured regularly throughout the study period.
Extensive modeling of low potassium levels among the N=47 subjects was performed to determine the best predictors of low potassium after start of mifepristone. The modeling was based on logistic regressions where the endpoint was categorical Low vs High Potassium levels (Non-Hypokalemic Potassium >3.5 mmol/L vs Hypokalemic Potassium ≤3.5 mmol/L).
as §3

[3] = system: healthy volunteers; test: Previous clinical studies in healthy volunteers: adverse events; format: in vivo, human
Description: Hypokalemia and rash appear to be more common in subjects receiving mifepristone than in the control groups.

[4] = Day 210 (6 week follow-up), Hypokalemic
[5] = Day 210 (6 week follow-up), Non-Hypokalemic

CC#C[C@]1(O)CC[C@H]2[C@@H]3CCC4=CC(=O)CCC4=C3[C@@H](c3ccc(N(C)C)cc3)C[C@@]21C [mifepristone, 11β-(4-dimethylaminophenyl)-17β-hydroxy-17α-(1-propynyl)-estra-4,9-dien-3-one]
24 Hour Urine Cortisol (nmol/24 hr)/ACTH Ratio Visit Values ([1]; Day 42, Hypokalemic): 26.1 ± 18.4 (6) | 24 Hour Urine Cortisol Visit Change Values from Baseline ([1]; Day 42, Hypokalemic): 641 ± 3678 (6) nmol/24 hr | 24 Hour Urine Cortisol Visit Values ([1]; Day 42, Hypokalemic): 4373 ± 5347 (6) nmol/24 hr | 24 Hour Urine Cortisol (nmol/24 hr)/ACTH Ratio Visit Values ([1]; Day 42, Non-Hypokalemic): 7.9 ± 6.0 (35) | 24 Hour Urine Cortisol Visit Change Values from Baseline ([1]; Day 42, Non-Hypokalemic): 329 ± 967 (35) nmol/24 hr | 24 Hour Urine Cortisol Visit Values ([1]; Day 42, Non-Hypokalemic): 886 ± 1060 (35) nmol/24 hr | 24 Hour Urine Cortisol (nmol/24 hr)/ACTH Ratio Visit Values ([1]; Day 70, Hypokalemic): 33.5 ± 16.1 (6) | 24 Hour Urine Cortisol Visit Change Values from Baseline ([1]; Day 70, Hypokalemic): 4856 ± 4805 (6) nmol/24 hr | 24 Hour Urine Cortisol Visit Values ([1]; Day 70, Hypokalemic): 9132 ± 9321 (6) nmol/24 hr | 24 Hour Urine Cortisol (nmol/24 hr)/ACTH Ratio Visit Values ([1]; Day 70, Non-Hypokalemic): 17.0 ± 32.7 (30) | 24 Hour Urine Cortisol Visit Change Values from Baseline ([1]; Day 70, Non-Hypokalemic): 1045 ± 3500 (30) nmol/24 hr | 24 Hour Urine Cortisol Visit Values ([1]; Day 70, Non-Hypokalemic): 1696 ± 3387 (30) nmol/24 hr | 24 Hour Urine Cortisol (nmol/24 hr)/ACTH Ratio Visit Values ([1]; Day 112, Hypokalemic): 30.9 ± 31.0 (9) | 24 Hour Urine Cortisol Visit Change Values from Baseline ([1]; Day 112, Hypokalemic): 2916 ± 2593 (9) nmol/24 hr | 24 Hour Urine Cortisol Visit Values ([1]; Day 112, Hypokalemic): 3552 ± 2827 (9) nmol/24 hr | 24 Hour Urine Cortisol (nmol/24 hr)/ACTH Ratio Visit Values ([1]; Day 112, Non-Hypokalemic): 9.6 ± 16.3 (23) | 24 Hour Urine Cortisol Visit Change Values from Baseline ([1]; Day 112, Non-Hypokalemic): 104 ± 5293 (23) nmol/24 hr | 24 Hour Urine Cortisol Visit Values ([1]; Day 112, Non-Hypokalemic): 1314 ± 3351 (23) nmol/24 hr | 24 Hour Urine Cortisol (nmol/24 hr)/ACTH Ratio Visit Values ([1]; Day 168, Hypokalemic): 19.3 ± 9.5 (5) | 24 Hour Urine Cortisol Visit Change Values from Baseline ([1]; Day 168, Hypokalemic): 4128 ± 6624 (5) nmol/24 hr | 24 Hour Urine Cortisol Visit Values ([1]; Day 168, Hypokalemic): 5615 ± 5053 (5) nmol/24 hr | 24 Hour Urine Cortisol (nmol/24 hr)/ACTH Ratio Visit Values ([1]; Day 168, Non-Hypokalemic): 12.4 ± 15.5 (36) | 24 Hour Urine Cortisol Visit Change Values from Baseline ([1]; Day 168, Non-Hypokalemic): 512 ± 4575 (36) nmol/24 hr | 24 Hour Urine Cortisol Visit Values ([1]; Day 168, Non-Hypokalemic): 1444 ± 3127 (36) nmol/24 hr | 24 Hour Urine Cortisol (nmol/24 hr)/ACTH Ratio Visit Values [1, 4]: 11.5 ± 7.5 (3) | 24 Hour Urine Cortisol Visit Change Values from Baseline [1, 4]: 2497 ± 3776 (3) nmol/24 hr | 24 Hour Urine Cortisol Visit Values [1, 4]: 5129 ± 6335 (3) nmol/24 hr | 24 Hour Urine Cortisol (nmol/24 hr)/ACTH Ratio Visit Values [1, 5]: 12.5 ± 27.9 (35) | 24 Hour Urine Cortisol Visit Change Values from Baseline [1, 5]: 471 ± 2843 (35) nmol/24 hr | 24 Hour Urine Cortisol Visit Values [1, 5]: 1423 ± 6086 (35) nmol/24 hr | developed hypokalemia on or after Day 28 ([2]; both, human): 6.7% | developed severe/recurrent hypokalemia on or after Day 28 ([2]; both, human): 6.7% | subjects with a Potassium value ≤3.5 mmol/L at any of the six visits ([2]; both, human): 21 subjects | subjects with a Potassium value ≤3.5 mmol/L at any post-baseline visit ([2]; both, human): 23 subjects | Number with Hypokalemia (%) (Potassium ≤ 3.4 mEq/L) ([2]; both, human, 6 week): 7 (14%) Number (%) | Number with Hypokalemia (%) (Potassium ≤ 3.4 mEq/L) ([2]; both, human, 8 week): 4 (8%) Number (%) | Number with Hypokalemia (%) (Potassium ≤ 3.4 mEq/L) ([2]; both, human, 10 week): 4 (8%) Number (%) | Number with Hypokalemia (%) (Potassium ≤ 3.4 mEq/L) ([2]; both, human, 12 week): 3 (6%) Number (%) | Number with Severe Hypokalemia (%) (Potassium ≤ 2.5 mEq/L) ([2]; both, human, 12 week): 1 (2%) Number (%) | Number with Hypokalemia (%) (Potassium ≤ 3.4 mEq/L) ([2]; both, human, 16 week): 5 (10%) Number (%) | Number with Severe Hypokalemia (%) (Potassium ≤ 2.5 mEq/L) ([2]; both, human, 16 week): 1 (2%) Number (%) | Number with Hypokalemia (%) (Potassium ≤ 3.4 mEq/L) ([2]; both, human, 20 week): 1 (2%) Number (%) | Number with Hypokalemia (%) (Potassium ≤ 3.4 mEq/L) ([2]; both, human, 24 week): 4 (8%) Number (%) | Hypokalemia observed ([2]; both, human, 24 weeks): 44% | No Hypokalemia ([2]; both, human, 24 weeks): 29 (64.4) n (%) | Non-Severe Hypokalemia ([2]; both, human, 24 weeks): 7 (15.6) n (%) | Severe/Recurrent Hypokalemia ([2]; both, human, 24 weeks): 9 (20.0) n (%) | developed hypokalemia after dosing ([2]; both, human, 24 weeks): 42.9% | Number with Hypokalemia (%) (Potassium ≤ 3.4 mEq/L) ([2]; both, human, 30 week): 3 (6%) Number (%) | Number with Severe Hypokalemia (%) (Potassium ≤ 2.5 mEq/L) ([2]; both, human, 30 week): 1 (2%) Number (%) | Number with Hypokalemia (%) (Potassium ≤ 3.4 mEq/L) ([2]; both, human, 1 day): 2 (4%) Number (%) | Number with Hypokalemia (%) (Potassium ≤ 3.4 mEq/L) ([2]; both, human, 7 day): 2 (4%) Number (%) | Number of Subjects Hypokalemic <=3.5 mmol/L ([2]; both, human, 14 day): 8 | Number of Subjects Non-Hypokalemic >3.5 mmol/L ([2]; both, human, 14 day): 38 | Number with Hypokalemia (%) (Potassium ≤ 3.4 mEq/L) ([2]; both, human, 14 day): 8 (16%) Number (%) | Number with Severe Hypokalemia (%) (Potassium ≤ 2.5 mEq/L) ([2]; both, human, 14 day): 1 (2%) Number (%) | subjects with a Potassium value ≤3.5 mmol/L as early as day 14 ([2]; both, human, 14 days): 8 | subjects with a Potassium value ≤3.5 mmol/L as early as day 14, all post-baseline values ([2]; both, human, 14 days): 11 | Number with Hypokalemia (%) (Potassium ≤ 3.4 mEq/L) ([2]; both, human, 28 day): 10 (20%) Number (%) | Number of Subjects Hypokalemic <=3.5 mmol/L ([2]; both, human, 42 day): 6 | Number of Subjects Non-Hypokalemic >3.5 mmol/L ([2]; both, human, 42 day): 35 | Number of Subjects Hypokalemic <=3.5 mmol/L ([2]; both, human, 70 day): 6 | Number of Subjects Non-Hypokalemic >3.5 mmol/L ([2]; both, human, 70 day): 30 | Number of Subjects Hypokalemic <=3.5 mmol/L ([2]; both, human, 112 day): 9 | Number of Subjects Non-Hypokalemic >3.5 mmol/L ([2]; both, human, 112 day): 23 | Number of Subjects Hypokalemic <=3.5 mmol/L ([2]; both, human, 168 day): 5 | Number of Subjects Non-Hypokalemic >3.5 mmol/L ([2]; both, human, 168 day): 37 | Number of Subjects Hypokalemic <=3.5 mmol/L ([2]; both, human, 210 day): 3 | Number of Subjects Non-Hypokalemic >3.5 mmol/L ([2]; both, human, 210 day): 37 | patients with at least one potassium value of 2.5 mmol/L or lower [2]: two | severity of hypokalemia [2]: mild to moderate | subjects with a day 7 Potassium value ≤3.5 mmol/L [2]: three | subjects with reported treatment emergent adverse events (TEAEs) of decreased blood potassium [2]: Seventeen | frequently reported adverse events ([3]; previous clinical studies, healthy volunteers): headache, gastrointestinal symptoms including diarrhea, nausea and vomiting, and rash | Hypokalemia and rash versus control groups ([3]; subjects receiving mifepristone vs control groups): more common
